Laboratory results published in patent US8710082B2, “Benzimidazole inhibition of biofilm formation” (priority 2011, dated 2014).
Entries after “also recorded” stand apart in the source; their conditions may differ.

Legend:
V. cholerae [1] = test: MBEC static crystal-violet biofilm assay, V. cholerae; assay type: cell-based, Vibrio cholerae; conditions: for inhibition of V. cholerae biofilm development: 100 μM, MBEC crystal-violet assay
VC1673-lux = test: microbe, parasite or virus in culture; conditions: Vibrio cholerae, read-out: IC50 of inhibition of VC1673-lux
Klebsiella pneumoniae [2] = test: Flow-cell biofilm formation (CLSM), K. pneumoniae; assay type: cell-based; conditions: continuous flow
V. cholerae [3] = test: Flow-cell biofilm formation (CLSM), V. cholerae; assay type: cell-based, Vibrio cholerae; conditions: 10 μM, 24 hours
Protocol: For biofilm experiments under flow conditions, biofilms were grown in disposable flow cells (Stovall Life Science, Greensboro, N.C.) as described elsewhere. In brief, the inlet side of the flow cell was connected to a sterile reservoir filled with the appropriate growth medium. The outlet side was connected to a waste reservoir to create a “once-through” flow cell system. Tubing upstream of each individual cell was injected with 0.5 mL of standardized overnight culture of the test strain and the chamber was incubated in upright position at 37° C. for 1 h. Flow was then resumed with flow rate of 0.2 mL/min for V. cholerae, P. aeruginosa, S. boydii, S. aureus and K. pneumoniae, and a flow rate of 0.15 mL/min for E. amylovora. The non-adherent bacteria were eventually flushed by the flow of the medium thereby replacing the volume of the flow cell once every minute. Biofilm formation on the flow cell was imaged both macroscopically and microscopically at 24 h and 48 h. […]
For CLSM analysis of biofilms, the medium flow was stopped and fluorescent dyes syto-9 and propidium iodide (Molecular Probes, Eugene, Oreg., USA) were injected into the flow cell chamber and incubated for 30 min in the dark. […] Thickness of the biofilm was measured starting from the z-section at the flow-cell/biofilm interface to the z-section at the top of the biofilm surface containing <5% of total biomass. […]

CA-MRSA (USA-300) = test: Flow-cell biofilm formation (CLSM), CA-MRSA USA300; assay type: cell-based, Staphylococcus aureus; conditions: 25 μM, shear conditions
[4] = tested on: c-di-GMP in P. aeruginosa PA01; assay type: cell-based, Pseudomonas aeruginosa; conditions: 35 μM, data not shown
S. aureus strain Newman [5] = test: Flow-cell biofilm formation (CLSM), S. aureus Newman; assay type: cell-based, Staphylococcus aureus; conditions: 25 μM, shear conditions
E. amylovora = test: Flow-cell biofilm formation (CLSM), E. amylovora; assay type: cell-based, Erwinia amylovora; conditions: 100 μM, continuous flow
[6] = tested on: P. aeruginosa pre-formed biofilms; test: Dispersal of pre-formed biofilms under flow, P. aeruginosa; assay type: cell-based, Pseudomonas aeruginosa; conditions: 100 μM added at 24 hours, 3, 6 and 24-hour incubation
S. boydii = test: Flow-cell biofilm formation (CLSM), S. boydii; assay type: cell-based, Shigella boydii; conditions: 100 μM, 48 h
[7] = tested on: Staphylococcus aureus MRSA strain USA3000; test: MBEC static biofilm assay, S. aureus USA300 (CA-MRSA); assay type: cell-based; conditions: 25 μM
Protocol: (§1) Biofilm formation was measured under both static and flow conditions. For the static condition, we used quantitative crystal violet assay on polystyrene 96-well and MBEC plates (Biosurface Technologies, Bozeman Mont.) as described previously. The MBEC technology is a 96-well plate cover containing 96 polystyrene pegs that sit in the 96 wells of a conventional plate. Briefly, overnight grown cultures were standardized to 0.1 OD595, 200 μL was transferred to the wells of a 96-well polystyrene microtiter plate (Corning, Inc., Corning, N.Y.), and the MBEC lid was placed on top of the wells. Biofilms were grown on the pegs of the lid under shaking conditions for 24 h. The lid was removed and the pegs were gently washed twice with 200 μL of phosphate-buffered saline to remove non adherent cells. Adherent biofilms on the pegs were fixed with 200 μL of 100% ethanol prior to staining for 2 min with 200 μL of 0.41% (wt/vol) crystal violet in 12% ethanol (Protocol Crystal Violet; Biochemical Sciences, Swedesboro, N.J.). […] Quantitative assessment of biofilm formation was obtained by immersing the pegs in sterile polystyrene microtiter plate containing 200 μl of 100% ethanol and incubating at room temperature for 10 min (60) and the absorbance at 595 nm was determined using a SpectraMax M5 microplate spectrophotometer system (Molecular Devices, Sunnyvale, Calif.). […]

c-di-GMP in V. cholerae = assay type: cell-based, Vibrio cholerae
S. aureus strain Newman [8] = test: MBEC static biofilm assay, S. aureus Newman; assay type: cell-based, Staphylococcus aureus; conditions: 25 μM
Protocol: as §1

P. aeruginosa CF-145 [9] = test: Flow-cell biofilm formation (CLSM), P. aeruginosa CF-145; assay type: cell-based, Pseudomonas aeruginosa; conditions: 100 μM, 24 h
P. aeruginosa CF-145 [10] = test: MBEC static crystal-violet biofilm assay, P. aeruginosa CF-145; assay type: cell-based, Pseudomonas aeruginosa
Protocol: as §1

S. aureus = assay type: cell-based, Staphylococcus aureus; conditions: data not shown
Klebsiella pneumoniae [11] = test: MBEC static biofilm assay, K. pneumoniae; assay type: cell-based; conditions: ABC-1 between 50 and 100 μM for select pathogens, 24 hours
Protocol: as §1

gram-negative bacteria = test: Impact on growth of gram-negative bacteria; assay type: cell-based; conditions: concentrations used in biofilm tests; data not shown
[12] = tested on: K. pneumoniae pre-formed biofilms; test: Dispersal of pre-formed biofilms under flow, K. pneumoniae; assay type: cell-based, Klebsiella pneumoniae; conditions: 100 μM added at 24 hours, 3, 6 and 24-hour incubation
[13] = tested on: phosphodiesterase (PDE) enzyme VieA; assay type: biochemical
Excerpt: (§2) Furthermore, we established an in vitro assay to measure the activity of the diguanylate cyclase (DGC) enzyme VC2370 that synthesizes c-di-GMP and the phosphodiesterase (PDE) enzyme VieA that degrades c-di-GMP.

[14] = tested on: diguanylate cyclase (DGC) enzyme VC2370; assay type: biochemical
Excerpt: as §2

Erwinia amylovora = test: MBEC static biofilm assay, E. amylovora; assay type: cell-based; conditions: 100 μM
Protocol: as §1

Shigella boydii = test: MBEC static biofilm assay, S. boydii; assay type: cell-based; conditions: 100 μM
Protocol: as §1

COc1ccc2[nH]c(SCc3ccc(Cl)cc3)nc2c1 [ABC-2, 2-[(4-chlorobenzyl)thio]-5-methoxy-1H-benzimidazole]
inhibition of V. cholerae biofilm development (V. cholerae [1]): capable of significantly inhibiting V. cholerae biofilm development
IC50 (VC1673-lux): < 10000 nM

COc1ccc2[nH]c(SCc3ccc(C)cc3)nc2c1 [ABC-1, 5-methoxy-2-[(4-methylbenzyl)sulfanyl]-1H-benzimidazole]
inhibition of V. cholerae biofilm development (V. cholerae [1]): capable of significantly inhibiting V. cholerae biofilm development
IC50 (V. cholerae [1]; Vibrio cholerae, read-out: IC50 to inhibit biofilm formation of V. cholerae): 32.3 nM
biofilm formation under flow (Klebsiella pneumoniae [2]; 24 hours): inhibited biofilm formation
fate of biofilms that did form in the presence of ABC-1 (Klebsiella pneumoniae [2]; data not shown): began to disperse beyond 30 hours
biofilm formation under flow (V. cholerae [3]): dramatically reduced biofilm formation
biofilm formation under flow (CA-MRSA (USA-300)): reduced compared to the untreated condition
levels of c-di-GMP [4]: no effect
biofilm formation under flow (S. aureus strain Newman [5]): less surface area coverage and biofilms were present as small patches
biofilm development under flow (E. amylovora): pronounced decrease
IC50 (VC1673-lux): < 10000 nM
dispersal of pre-formed biofilms [6]: did not confer any significant changes in biofilm architecture
biofilm formation under flow (S. boydii): greatly reduced biofilm formation
inhibition of biofilms, static [7]: significantly inhibited biofilms; also recorded: statistically significant (P<0.05), but less robust than observed for most gram-negative pathogens
intracellular c-di-GMP (c-di-GMP in V. cholerae): modest reduction
inhibition of biofilms, static (S. aureus strain Newman [8]): significantly inhibited biofilms; also recorded: statistically significant (P<0.05), but less robust than observed for most gram-negative pathogens
biofilm formation under flow (P. aeruginosa CF-145 [9]): greatly reduced biofilm formation
inhibition of biofilms, static (P. aeruginosa CF-145 [10]; ABC-1 between 50 and 100 μM for select pathogens, MBEC static): significantly inhibited biofilms
IC50 (P. aeruginosa CF-145 [10]; Pseudomonas aeruginosa, CF145, read-out: IC50 to inhibit biofilm formation of P. aeruginosa): 45.9 nM
concentration that inhibited the growth of S. aureus (S. aureus): ≥ 50 µM
inhibition of biofilms, static (Klebsiella pneumoniae [11]): significantly inhibited biofilms; also recorded: inhibited biofilm formation
inhibition of growth of gram-negative bacteria (gram-negative bacteria): no impact on growth; also recorded: no concentration of ABC-1 showed inhibition of growth
dispersal of pre-formed biofilms [12]: did not confer any significant changes in biofilm architecture
in vitro activity of PDE VieA [13]: no significant impact
in vitro activity of DGC VC2370 [14]: no significant impact
inhibition of biofilms, static (Erwinia amylovora): significantly inhibited biofilms; also recorded: pronounced decrease
inhibition of biofilms, static (Shigella boydii): significantly inhibited biofilms; also recorded: significantly impacted
